Values of other authors in paper PMC4505863 (ACS Chemical Neuroscience, 2014).

Columns and labels:
rat stomach fundus = conditions: cited from earlier work
[1] = tested on: isolated guinea pig uterus; conditions: cited from earlier work
[2] = tested on: 5-HT2 type receptors in rat jugular vein; conditions: cited from earlier work
[3] = tested on: 5-HT2 type receptors in rabbit aorta; conditions: cited from earlier work
[4] = tested on: isolated guinea pig taenia cecum; conditions: cited from earlier work
5-HT2A receptor = 5-HT2A receptor (Homo sapiens, UniProt P28223); conditions: receptor not given; cited from earlier work
Chain of 5-HT2A receptor (P28223 whole entry): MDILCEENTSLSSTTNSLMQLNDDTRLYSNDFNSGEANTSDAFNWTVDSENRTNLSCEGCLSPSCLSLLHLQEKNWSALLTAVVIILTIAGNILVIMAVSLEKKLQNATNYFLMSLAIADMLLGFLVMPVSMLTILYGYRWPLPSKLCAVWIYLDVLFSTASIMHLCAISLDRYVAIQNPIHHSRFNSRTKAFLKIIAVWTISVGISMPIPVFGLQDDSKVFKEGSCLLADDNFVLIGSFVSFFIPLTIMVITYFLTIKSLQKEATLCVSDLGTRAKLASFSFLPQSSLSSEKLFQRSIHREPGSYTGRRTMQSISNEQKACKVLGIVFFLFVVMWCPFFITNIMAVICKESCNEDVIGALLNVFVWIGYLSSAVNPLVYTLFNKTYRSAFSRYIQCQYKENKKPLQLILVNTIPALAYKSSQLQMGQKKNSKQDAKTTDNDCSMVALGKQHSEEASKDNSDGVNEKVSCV

COc1ccc2[nH]cc(CCNCc3ccccc3)c2c1 [N-benzyl-5-methoxytryptamine]
effect on serotonin-induced contraction (rat stomach fundus): antagonist
effect on serotonin-induced contraction [1]: antagonist
agonist activity at 5-HT2 type receptors [2]: weak partial agonist activity
agonist activity at 5-HT2 type receptors [3]: weak partial agonist activity
effect on serotonin-induced contraction [4]: antagonist
affinity relative to the parent primary amine (5-HT2A receptor): essentially no effect on affinity
